Reference: PubChem BioAssay (NCI)
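Where inhibition never reached the appropriate level, the endpoint shown equals the highest concentration tested. Otherwise, values were interpolated linearly from a five-concentration, 48-hour dose response in 96-well plates. TGI denotes the concentration required for complete inhibition of growth.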

Experiments:
Assay in all cases: inhibition of tumour cell growth, NCI panel, 48 h
[1] = test system: 786-0 renal
[2] = test system: A498 renal
[3] = test system: A549 NSCLC
[4] = test system: ACHN renal
[5] = test system: BT-549 breast
[6] = test system: CAKI-1 renal
[7] = test system: CCRF-CEM leukemia
[8] = test system: COLO 205 colon
[9] = test system: DU-145 prostate
[10] = test system: EKVX NSCLC
[11] = test system: HCC-2998 colon
[12] = test system: HCT-116 colon
[13] = test system: HCT-15 colon
[14] = test system: HL-60(TB) leukemia
[15] = test system: HOP-62 NSCLC
[16] = test system: HOP-92 NSCLC
[17] = test system: HS 578T breast
[18] = test system: HT29 colon
[19] = test system: IGROV1 ovarian
[20] = test system: K-562 leukemia
[21] = test system: KM12 colon
[22] = test system: LOX IMVI melanoma
[23] = test system: M14 melanoma
[24] = test system: MALME-3M melanoma
[25] = test system: MCF7 breast
[26] = test system: MDA-MB-231 breast
[27] = test system: MDA-MB-435
[28] = test system: MDA-N
[29] = test system: MOLT-4 leukemia
[30] = test system: NCI-H226 lung
[31] = test system: NCI-H23 lung
[32] = test system: NCI-H460 lung
[33] = test system: NCI-H522 lung
[34] = test system: NCI/ADR-RES ovarian
[35] = test system: OVCAR-3 ovarian
[36] = test system: OVCAR-4 ovarian
[37] = test system: OVCAR-5 ovarian
[38] = test system: OVCAR-8 ovarian
[39] = test system: PC-3 prostate
[40] = test system: RPMI-8226 leukemia
[41] = test system: RXF 393 renal
[42] = test system: SF-268 CNS
[43] = test system: SF-295 CNS
[44] = test system: SF-539 CNS
[45] = test system: SK-MEL-2 melanoma
[46] = test system: SK-MEL-28 melanoma
[47] = test system: SK-MEL-5 melanoma
[48] = test system: SK-OV-3 ovarian
[49] = test system: SN12C renal
[50] = test system: SNB-19 CNS
[51] = test system: SNB-75 CNS
[52] = test system: SW-620 colon
[53] = test system: T-47D breast
[54] = test system: TK-10 renal
[55] = test system: U251 CNS
[56] = test system: UACC-257 melanoma
[57] = test system: UACC-62 melanoma
[58] = test system: UO-31 renal

Measured: TGI

CCOC(=O)C(C(=O)c1ccccc1C(=O)OC)=P(c1ccccc1)(c1ccccc1)c1ccccc1
> 10 µM: all assays above
